Source: PMC11271967, “An inhibitory mechanism of AasS, an exogenous fatty acid scavenger: Implications for re-sensitization of FAS II antimicrobials” (PLOS Pathogens, 2024)
Entries after “also recorded” stand apart in the source; their conditions may differ. Where two headings read alike, the source gives them in different places.

Experiments:
AasS [1] = assay: In vitro enzymatic activity of AasS (acyl-ACP formation, conformationally-sensitive urea PAGE, ImageJ semi-quantitation); type: biochemical, Vibrio harveyi; conditions: for C10-ACP conversion from C10 substrate, Average: AasS 3 nM, fig. 2E; for activity as substrate of AasS in vitro (ligation with holo-ACP): urea gel
AasS [2] = molecular target: T1, AasS (Vibrio harveyi, UniProt Q00IB3); assay: Isothermal titration calorimetry (ITC), wild-type AasS; type: binding; conditions: for binding to AasS in ITC: negative controls
Procedure: The assays of Isothermal titration calorimetry (ITC) were conducted to address the stoichiometry of AasS binding to its C10-AMS inhibitor and C10-AMP intermediate. Since both malic acid and pimelic acid are not substrates for AasS, the two dicarboxylic acids were assumed as negative controls in our ITC analysis. Using a micro-calorimeter (MicroCal PEAQ-ITC) as recently described for E-C7 with little change, totally 18 titrations (2 μl each at an internal of 2.5 min) proceeded in the cell at room temperature. Prior to the titration, AasS protein (~40 μM) was saturated with its ATP cofactor (120 μM) in the cell, and C10-AMS inhibitor (or C10) was kept at 600 μM in the syringe. The titration buffer was composed of 150 mM NaCl, 25 mM Tris-HCl (pH8.0), 2 mM DTT, and 3 mM MgCl2. One set of site model by the MicroCal PEAQ-ITC software enabled plotting the titration curves. Next, the stoichiometry (N) and dissociation constant (Kd) were calculated. It was given as an average ± standard deviation (SD) from three independent trials.

AasS (D411A) = assay: Isothermal titration calorimetry (ITC), AasS (D411A) mutant; type: binding, Vibrio harveyi
Procedure: Fig 7 Parallels in binding of AasS to the C10-AMP adenylate intermediate and the C10-AMS inhibitor. Structural visualization for AasS binding an intermediate C10-AMP adenylate (A) and its inhibitor C10-AMS (B). […] C. […] Both AasS enzymatic reaction and conformationally-sensitive gel separation were conducted as described in Fig 2D and 2F. D. In vivo evidence that the three single mutants of AasS (D411A, R426A, and K432A) lose the ability to bypass the physiological requirement of biotin for the bioC isogenic mutant of E. coli on the non-permissive condition. The bacterial viability on M9 defined agar medium was determined as performed in Fig 4E. […] The ITC assays were carried out as we conducted in Fig 3B.
The assays of Isothermal titration calorimetry (ITC) were conducted to address the stoichiometry of AasS binding to its C10-AMS inhibitor and C10-AMP intermediate. Since both malic acid and pimelic acid are not substrates for AasS, the two dicarboxylic acids were assumed as negative controls in our ITC analysis. Using a micro-calorimeter (MicroCal PEAQ-ITC) as recently described for E-C7 with little change, totally 18 titrations (2 μl each at an internal of 2.5 min) proceeded in the cell at room temperature. […] Next, the stoichiometry (N) and dissociation constant (Kd) were calculated. […]

AasS [3] = molecular target: T1, AasS; assay: Microscale thermophoresis (MST), wild-type AasS; type: binding; conditions: AasS 40 nM; C10/ATP mixture 0.15 nM to 5.0 μM
Procedure: (§1) To validate poor binding of AasS(D411A) to C10 fatty acyl adenylate observed in our ITC assays, the relatively-more sensitive approach of microscale thermophoresis (MST) was additionally applied here as Jerabek-Willemsen et al. described with minor alteration. Using the Protein Labeling Kit (Protein Labeling Kit RED-NHS 2nd Generation, Nano Temper Technology), both the wild-type AasS and its D411A mutant were fluorescently labelled in the MST buffer (150 mM NaCl, 25 mM Tris-HCl, 3 mM MgCl2, 0.05% Tween-20, pH 8.0). The ligand C10-AMP used in MST assays was prepared by an equal mixture of C10 and ATP. In general, an NT.115 Monolith instrument (Nano Temper Technology, Germany) was integrated, of which the routine parameters included a RED/LED (20%) excitation power along with 60% laser power for excitation. Then, the protein samples were siphoned into MST Premium Coated capillaries for the determination of binding affinity at room temperature. The final concentrations of different AasS samples were 40 nM for WT, and 180 nM for D411A, respectively. The mixture of C10/ATP was diluted in a gradient (from 0.15 nM to 5.0 μM). Three independent MST experiments were conducted here. The dissociation constants (Kd) were calculated using the software MO. Affinity Analysis v2.3. Of note, this was largely dependent on the KD model with a 1:1 stoichiometry per binding partner.

AasS(D411A) = assay: Microscale thermophoresis (MST), AasS(D411A) mutant; type: binding, Vibrio harveyi; conditions: D411A 180 nM; C10/ATP mixture 0.15 nM to 5.0 μM
Procedure: as §1

AasS [4] = molecular target: T1, AasS; parameters: method as in PMID 39794554; conditions: cited from earlier work
[5] = test system: MenE, an o-succinylbenzoyl-CoA synthetase; conditions: cited from earlier work
[6] = test system: AasS-expressing E. coli ΔbioC strain; assay: AasS-based bypass of biotin synthesis, bacterial viability on M9 agar; type: cell-based, Escherichia coli; conditions: biotin-deficient M9 medium
From the text: Fig 4 Integrated evidence for the inhibition of AasS action with E-C7 fatty acid by C10-AMS compound. A. Schematic diagram of AasS-catalyzed ligation of E-C7 with holo-ACP recipient to produce E-C7-ACP. […] A representative photograph of three independent trials was given. C. Relatively-quantitative analysis (for the inhibitory efficacy of C10-AMS on AasS-catalyzed E-C7-ACP production. As for AasS reaction (panel B), unlike the three components that are at constant levels, namely (i) AasS (31.25 nM), (ii) E-C7 (600 μM), and (iii) ACP (3 μg), C10-AMS inhibitor was supplemented at varied ratio in relative to the AasS enzyme (ranging from 0:1, 25:1, 50:1, 100:1, 200:1, 300:1, 400:1, to 500:1). The ImageJ software was applied to measure the relative percentage (%) of E-C7 fatty acylation in each AasS reaction. The resultant graphs were plotted from three independent experiments, in which the output was expressed as means ± SD (standard deviations). D. Schematic diagram for C10-AMS inhibition of AasS-based bypass of biotin requirement by the E. coli ΔbioC biotin auxotroph on the non-permissive condition. […] Log-phase cultures in a series of 10-fold dilution (shown in panel on right hand), were spotted on the x-gal-containing M9 agar plates supplemented with C10-AMS inhibitor at varied levels (0, 50, 100, to 500 μM). The addition of x-gal substrate enabled the occurrence of blue colonies for better photographing, and viable colonies were highlighted with yellow arrows.
Given that AasS ligates E-C7 fatty acid with holo-ACP, giving E-C7-ACP, an alternative precursor for bacterial biotin synthesis, plasmid-borne aasS expression in ΔbioC biotin auxotroph strain is assumed to overcome the requirement of the primary BioC step [58, 83]. Apart from its WT, three single mutants of AasS (D411A, R426A, and K432A) were examined in vivo, of which the compromised activity is presumably proportional to the varied viability of the ΔbioC reporter strains on the non-permissive M9 growth condition. To test its inhibitory effect, the C10-AMS inhibitor in a series of dilution was supplemented. […]

T1 sequence (Q00IB3 entry or part of it): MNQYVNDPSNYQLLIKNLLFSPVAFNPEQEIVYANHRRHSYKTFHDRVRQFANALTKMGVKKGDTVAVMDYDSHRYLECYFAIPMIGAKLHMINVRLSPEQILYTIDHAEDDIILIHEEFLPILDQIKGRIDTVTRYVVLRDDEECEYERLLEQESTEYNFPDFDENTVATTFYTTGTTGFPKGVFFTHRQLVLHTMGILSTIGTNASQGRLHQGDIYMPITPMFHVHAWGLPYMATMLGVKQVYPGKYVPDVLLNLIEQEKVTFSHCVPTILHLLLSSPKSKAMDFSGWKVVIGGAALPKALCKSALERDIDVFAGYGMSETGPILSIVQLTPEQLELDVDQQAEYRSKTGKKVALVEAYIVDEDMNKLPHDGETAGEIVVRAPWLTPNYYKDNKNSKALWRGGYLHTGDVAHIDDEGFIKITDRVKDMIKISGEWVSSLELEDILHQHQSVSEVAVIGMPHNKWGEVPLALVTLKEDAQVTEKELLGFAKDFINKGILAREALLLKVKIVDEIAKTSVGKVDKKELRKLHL

In the case of `CCCCCCCCCC(=O)O` [C10, decanoic acid], the “C10-ACP conversion from C10 substrate, Average” value (from here on “C10-ACP conversion”) (AasS [1]; C10 6 μM) is reported as 46.1519, the “C10-ACP conversion” value (AasS [1]; C10 12 μM) is reported as 68.3859 and the “C10-ACP conversion” value (AasS [1]; C10 24 μM) is reported as 90.5892. For the same compound, the “C10-ACP conversion” value (AasS [1]; C10 60 μM) was 89.8102, the “C10-ACP conversion” value (AasS [1]; C10 120 μM) was 91.2632 and the “C10-ACP conversion” value (AasS [1]; C10 180 μM) was 91.9374. For the same compound, the “C10-ACP conversion” value (AasS [1]; C10 240 μM) was 91.9685, the Kd (AasS [2]) was 54.4 ± 5.1 nM and the “binding to AasS (D411A) in ITC (words)” value (AasS (D411A)) was “fails to effectively bind”. For the same compound, the “binding to AasS (D411A) in ITC (words)” value (AasS (D411A); listed as decanoic acid) was “does not”.

With `CCCCCCCCCC(=O)OP(=O)(O)OCC1OC(n2cnc3c(N)ncnc32)C(O)C1O` (centres unmarked) [C10-AMP, decanoyl-adenylate] the “stoichiometry (n)” value (AasS [2]; AasS ~40 μM saturated with ATP 120 μM) was 0.77 ± 0.04, the Kd (AasS [2]; AasS ~40 μM saturated with ATP 120 μM, ligand 600 μM in syringe, room temperature, read-out: dissociation constant (Kd)) was 64.4 ± 5.2 nM and the “binding by wild-type AasS in MST” value (AasS [3]) was “efficient binding”. For the same compound, the “binding by AasS(D411A) in MST” value (AasS(D411A)) was “lose its ability of binding”.

In the case of `CCOC(=O)CCCCCC(=O)O` [E-C7, mono-ethyl pimelic acid], the “binding affinity to AasS” value (AasS [4]) is given as “mild affinity”.

For `Nc1ncnc2c1ncn2[C@@H]1O[C@H](COS(=O)(=O)NC(=O)CCC(=O)c2ccccc2C(=O)O)[C@@H](O)[C@H]1O` [OSB-AMS], the “mode of inhibition of MenE” value [5] is listed as “mixed-type inhibitor”.

For `O=C(O)CC(O)C(=O)O` (centres unmarked) [malic acid], the “activity as substrate of AasS in vitro (ligation with holo-ACP)” value (AasS [1]) was “inactive”, the “binding to AasS in ITC” value (AasS [2]) was “none of the two dicarboxylic acids; also recorded: without an ability of binding” and the “support of AasS-based biotin bypass as sole carbon source” value [6] was “loss of function in supporting bacterial viability; also recorded: cannot bypass biotin requirement”.

With `O=C(O)CCCCCC(=O)O` [pimelic acid] the “activity as substrate of AasS in vitro (ligation with holo-ACP)” value (AasS [1]) was “inactive”, the “binding to AasS in ITC” value (AasS [2]) was “no binding” and the “binding to AasS in ITC” value (AasS [2]; listed as pimelate) was “none of the two dicarboxylic acids”. For the same compound, the “support of AasS-based biotin bypass as sole carbon source” value [6] was “loss of function in supporting bacterial viability; also recorded: Failure of AasS-based biotin bypass”.
